What is called IC50 is the concentration that inhibits the measured activity by half.

The values below come from patent publication US20260297042A1, “BIARYLAMIDE DERIVATIVES AND THEIR USE AS PKMYT1 INHIBITORS” (CANCER RESEARCH TECHNOLOGY LIMITED, priority 2023, published 2026).

A value given as a limit tells only on which side of the number the result lay.

The target in one assay is T1, Human PKMYT1 (Homo sapiens, UniProt Q99640).
T1 construct: Human PKMYT1 75-362 was cloned as a TEV cleavable 6xHis fusion; 6xHis (TEV cleavable) (cleaved yes); made in house; host or cells: bacterial cells
T1 sequence (Q99640 75-362): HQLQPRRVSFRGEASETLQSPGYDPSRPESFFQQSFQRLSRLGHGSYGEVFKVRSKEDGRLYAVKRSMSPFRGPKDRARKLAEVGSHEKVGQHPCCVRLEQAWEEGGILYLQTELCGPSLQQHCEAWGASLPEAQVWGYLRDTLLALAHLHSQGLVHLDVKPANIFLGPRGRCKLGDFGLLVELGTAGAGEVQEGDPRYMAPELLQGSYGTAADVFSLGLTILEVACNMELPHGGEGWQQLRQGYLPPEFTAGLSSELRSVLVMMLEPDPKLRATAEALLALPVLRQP
Put plainly: PKMYT1 biochemical ADP-Glo enzymatic assay. The note with it: ADP-Glo. The procedure, abridged:
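IC50 values come from 10-point 3-fold series, with replicates required within 3-fold and r2 >0.9. ADP formed by PKMYT1 intrinsic ATPase (500 uM ATP, 60 min, 26° C.) was quantified by ADP-Glo luminescence. The enzyme was the TEV-cleaved kinase domain 75-362 at 15 nM, in HEPES pH 7.5 buffer.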

Another assay concerns the target T2, WEE1 (Homo sapiens, UniProt P30291).
T2 construct: purchased Thermo Fisher PR7373A
Briefly: Selectivity versus WEE1 assay (ADP-Glo enzymatic assay). The format is biochemical. The note with it: for IC50: ADP-Glo; for PKMYT1 vs. WEE1 selectivity: fold difference in selectivity for PKMYT1 over WEE1. The procedure, abridged: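 ADP-Glo luminescent read-out after a 60-min, 26 °C kinase reaction of 15 nM WEE1 with 30 µM ATP, in HEPES pH 7.5 buffer containing MgCl2, EGTA, Brij-35 and 1% DMSO. IC50 accepted only when replicate values agree within 3-fold and curve fit r2 exceeds 0.9.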

Setting [1] is: 15 nM PKMYT1 kinase domain, 500 µM ATP, 60 minutes at 26° C., banded.
Setting [2] is: 15 nM WEE1, 60 minutes at 26° C., banded.
Setting [3] is: banded, ">N" = at least in this band but could be higher.
Where [4] appears, read: PKMYT1 kinase domain 15 nM, banded values.

T2 sequence (P30291 whole entry): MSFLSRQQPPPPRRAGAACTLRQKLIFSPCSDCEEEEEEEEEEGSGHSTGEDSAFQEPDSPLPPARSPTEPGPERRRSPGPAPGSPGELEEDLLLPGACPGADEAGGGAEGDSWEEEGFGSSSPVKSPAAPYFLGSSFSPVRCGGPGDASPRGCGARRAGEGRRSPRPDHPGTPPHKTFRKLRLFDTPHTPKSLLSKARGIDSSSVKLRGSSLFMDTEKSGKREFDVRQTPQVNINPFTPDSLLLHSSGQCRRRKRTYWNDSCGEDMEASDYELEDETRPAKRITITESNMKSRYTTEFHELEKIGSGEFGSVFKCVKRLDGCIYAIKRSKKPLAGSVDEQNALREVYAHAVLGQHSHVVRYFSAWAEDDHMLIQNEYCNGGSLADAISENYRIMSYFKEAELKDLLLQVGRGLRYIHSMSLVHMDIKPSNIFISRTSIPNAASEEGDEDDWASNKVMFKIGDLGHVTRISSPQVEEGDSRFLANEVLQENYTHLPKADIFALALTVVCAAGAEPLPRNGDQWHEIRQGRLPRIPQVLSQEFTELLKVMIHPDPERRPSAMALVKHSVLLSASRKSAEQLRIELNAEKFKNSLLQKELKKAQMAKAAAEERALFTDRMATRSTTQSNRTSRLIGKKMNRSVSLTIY

With `Cc1cn(CC(=O)N2CCC2)nc1Nc1ncc(C(=O)Nc2c(C)ccc(O)c2C)s1` [BAA-374, 2-((1-(2-(azetidin-1-yl)-2-oxoethyl)-4-methyl-1H-pyrazol-3-yl)amino)-N-(3-hydroxy-2,6-dimethylphenyl)thiazole-5-carboxamide], the IC50 on Human PKMYT1 (setting [1]) was under 0.05 µM; on WEE1 (setting [2]), 1 to 11 µM. Moreover, the “PKMYT1 vs. WEE1 selectivity” value at WEE1 (setting [3]) was “X (100-<1000 fold)”.

In the case of `Cc1ccc(O)c(C)c1NC(=O)c1cnc(Nc2c(C)cnn2Cc2cccc(F)c2)s1` [BAA-375, 2-((1-(3-Fluorobenzyl)-4-methyl-1H-pyrazol-5-yl)amino)-N-(3-hydroxy-2,6-dimethylphenyl)thiazole-5-carboxamide], the IC50 on Human PKMYT1 (setting [1]) was 1 to 11 µM; against WEE1 (setting [2]) it was over 11 µM. The “PKMYT1 vs. WEE1 selectivity” value at WEE1 (setting [3]) was “W (10-<100 fold)”.

As to `Cc1cn(-c2cncc(C(F)(F)F)c2)nc1Nc1ncc(C(=O)Nc2c(C)ccc(O)c2C)s1` [BAA-380, N-(3-hydroxy-2,6-dimethylphenyl)-2-((4-methyl-1-(5-(trifluoromethyl)pyridin-3-yl)-1H-pyrazol-3-yl)amino)thiazole-5-carboxamide], the IC50 was in the range of 0.05 to 1 µM against Human PKMYT1 (setting [1]) and 1 to 11 µM against WEE1 (setting [2]). Moreover, on WEE1 (setting [3]), the “PKMYT1 vs. WEE1 selectivity” value was “W (10-<100 fold)”.

As for `Cc1ccc(O)c(C)c1NC(=O)c1cnc(Nc2nn(-c3ccc(C(F)(F)F)nc3)cc2Cl)s1` [BAA-382, 2-((4-chloro-1-(6-(trifluoromethyl)pyridin-3-yl)-1H-pyrazol-3-yl)amino)-N-(3-hydroxy-2,6-dimethylphenyl) thiazole-5-carboxamide], the IC50 at Human PKMYT1 (setting [1]) was 0.05 to 1 µM; against WEE1 (setting [2]), over 11 µM. Also, on WEE1 (setting [3]), the “PKMYT1 vs. WEE1 selectivity” value is listed as “X (100-<1000 fold)”.

Turning to `Cc1cn(-c2cncn2C)nc1Nc1ncc(C(=O)Nc2c(C)ccc(O)c2C)s1` [BAA-387, N-(3-hydroxy-2,6-dimethylphenyl)-2-((4-methyl-1-(1-methyl-1H-imidazol-5-yl)-1H-pyrazol-3-yl)amino)thiazole-5-carboxamide], the figures for the IC50 at Human PKMYT1 (setting [1]) and against WEE1 (setting [2]) were under 0.05 µM and 1 to 11 µM, respectively. Besides, the “PKMYT1 vs. WEE1 selectivity” value on WEE1 (setting [3]) is “X (100-<1000 fold)”.

`Cc1c[nH]nc1Nc1ncc(C(=O)Nc2c(C)ccc(O)c2C)s1` [BAA-388, N-(3-hydroxy-2,6-dimethylphenyl)-2-((4-methyl-1H-pyrazol-3-yl)amino)thiazole-5-carboxamide]: the IC50 at Human PKMYT1 (setting [1]) is under 0.05 µM; at WEE1 (setting [2]), 1 to 11 µM. Also, the “PKMYT1 vs. WEE1 selectivity” value at WEE1 (setting [3]) is recorded as “X (100-<1000 fold)”.

For `Cc1ccc(O)c(C)c1NC(=O)c1cnc(Nc2nn(-c3ccccc3)cc2C#N)s1` [BAA-389, 2-((4-cyano-1-phenyl-1H-pyrazol-3-yl)amino)-N-(3-hydroxy-2,6-dimethylphenyl)thiazole-5-carboxamide], the figures for the IC50 at Human PKMYT1 (setting [1]) and at WEE1 (setting [2]) were under 0.05 µM and over 11 µM, respectively. In addition, the “PKMYT1 vs. WEE1 selectivity” value on WEE1 (setting [3]) is “Y (1000-5000 fold)”.

As to `Cc1cn(-c2cnn(CCO)c2)nc1Nc1ncc(C(=O)Nc2c(C)ccc(O)c2C)s1` [BAA-395, N-(3-hydroxy-2,6-dimethylphenyl)-2-((1′-(2-hydroxyethyl)-4-methyl-1′H-[1,4′-bipyrazol]-3-yl)amino)thiazole-5-carboxamide], the IC50 on Human PKMYT1 (setting [4]) was under 0.05 µM; on WEE1 (WEE1 15 nM, banded values), 1 to 11 µM. Also, at WEE1 (banded), the “PKMYT1 vs. WEE1 selectivity” value is given as “X (100-<1000 fold)”.

On to `Cc1ccc(O)c(C)c1NC(=O)c1cnc(Nc2ncccc2Cl)s1` [BAA-400, 2-((3-chloropyridin-2-yl)amino)-N-(3-hydroxy-2,6-dimethylphenyl)thiazole-5-carboxamide], for which the IC50 is under 0.05 µM against Human PKMYT1 (setting [4]) and 1 to 11 µM on WEE1 (WEE1 15 nM, banded values). Also, the “PKMYT1 vs. WEE1 selectivity” value at WEE1 (banded) is reported as “X (100-<1000 fold)”.

Turning to `Cc1ccc(O)c(C)c1NC(=O)c1cnc(Nc2ncc(F)cc2Cl)s1` [BAA-404, 2-((3-chloro-5-fluoropyridin-2-yl)amino)-N-(3-hydroxy-2,6-dimethylphenyl)thiazole-5-carboxamide], the IC50 on Human PKMYT1 (setting [4]) was under 0.05 µM; at WEE1 (WEE1 15 nM, banded values), over 11 µM. At WEE1 (banded), the “PKMYT1 vs. WEE1 selectivity” value is on record as “Y (1000-5000 fold)”.

As to `Cc1ccc(O)c(C)c1NC(=O)c1cnc(Nc2nc(Cl)ccc2C(F)(F)F)s1` [BAA-405, 2-((6-chloro-3-(trifluoromethyl)pyridin-2-yl)amino)-N-(3-hydroxy-2,6-dimethylphenyl)thiazole-5-carboxamide], the IC50 against Human PKMYT1 (setting [4]) is 0.05 to 1 µM; against WEE1 (WEE1 15 nM, banded values), over 11 µM. Also, at WEE1 (banded), the “PKMYT1 vs. WEE1 selectivity” value is recorded as “X (100-<1000 fold)”.

For the molecule `Cc1ccc(O)c(C)c1NC(=O)c1cnc(Nc2ncccc2C#N)s1` [BAA-408, 2-((3-cyanopyridin-2-yl)amino)-N-(3-hydroxy-2,6-dimethylphenyl)thiazole-5-carboxamide], the 50% inhibitory concentration (IC50) is 0.05 to 1 µM against Human PKMYT1 (setting [4]) and over 11 µM at WEE1 (WEE1 15 nM, banded values). Further, the “PKMYT1 vs. WEE1 selectivity” value at WEE1 (banded) was “X (100-<1000 fold)”.

Consider `C#Cc1cccc(Nc2ncc(C(=O)Nc3c(C)ccc(O)c3C)s2)n1` [BAA-431, 2-((6-ethynylpyridin-2-yl)amino)-N-(3-hydroxy-2,6-dimethylphenyl)thiazole-5-carboxamide], for which the IC50 at Human PKMYT1 (setting [4]) was 0.05 to 1 µM; against WEE1 (WEE1 15 nM, banded values), over 11 µM. Besides, on WEE1 (banded), the “PKMYT1 vs. WEE1 selectivity” value is “X (100-<1000 fold)”.

Regarding `Cc1nccc(Nc2ncc(C(=O)Nc3c(C)ccc(O)c3C)s2)n1` [BAA-434, N-(3-hydroxy-2,6-dimethylphenyl)-2-((2-methylpyrimidin-4-yl)amino)thiazole-5-carboxamide], the IC50 on Human PKMYT1 (setting [4]) is under 0.05 µM; against WEE1 (WEE1 15 nM, banded values), over 11 µM. Moreover, at WEE1 (banded), the “PKMYT1 vs. WEE1 selectivity” value is listed as “Y (1000-5000 fold)”.

`Cc1ccc(O)c(C)c1NC(=O)c1cnc(Nc2ccncn2)s1` [BAA-435, N-(3-hydroxy-2,6-dimethylphenyl)-2-(pyrimidin-4-ylamino)thiazole-5-carboxamide]: the IC50 is under 0.05 µM against Human PKMYT1 (setting [4]) and over 11 µM at WEE1 (WEE1 15 nM, banded values). The “PKMYT1 vs. WEE1 selectivity” value on WEE1 (banded) was “Y (1000-5000 fold)”.

Regarding `Cc1nc(Cl)cc(Nc2ncc(C(=O)Nc3c(C)ccc(O)c3C)s2)n1` [BAA-436, 2-((6-chloro-2-methylpyrimidin-4-yl)amino)-N-(3-hydroxy-2,6-dimethylphenyl)thiazole-5-carboxamide], the IC50 against Human PKMYT1 (setting [4]) is under 0.05 µM; at WEE1 (WEE1 15 nM, banded values) it was over 11 µM. Besides, on WEE1 (banded), the “PKMYT1 vs. WEE1 selectivity” value was “Z (>5000 fold)”.

Consider `Cc1ccc(O)c(C)c1NC(=O)c1cnc(Nc2ncc(C(F)(F)F)o2)s1` [BAA-437, N-(3-hydroxy-2,6-dimethylphenyl)-2-((5-(trifluoromethyl)oxazol-2-yl)amino)thiazole-5-carboxamide], for which the IC50 at Human PKMYT1 (setting [4]) is 1 to 11 µM; against WEE1 (WEE1 15 nM, banded values) it was over 11 µM. In addition, the “PKMYT1 vs. WEE1 selectivity” value at WEE1 (banded) was “W (10-<100 fold)”.

As for `Cc1ccc(O)c(C)c1NC(=O)c1cnc(Nc2nc(C(F)(F)F)co2)s1` [BAA-438, N-(3-hydroxy-2,6-dimethylphenyl)-2-((4-(trifluoromethyl)oxazol-2-yl)amino) thiazole-5-carboxamide], the IC50 against Human PKMYT1 (setting [4]) was 1 to 11 µM; against WEE1 (WEE1 15 nM, banded values), over 11 µM. The “PKMYT1 vs. WEE1 selectivity” value on WEE1 (banded) is given as “W (10-<100 fold)”.

Consider `Cc1ccc(O)c(C)c1NC(=O)c1cnc(Nc2noc(C)c2C)s1` [BAA-439, 2-((4,5-dimethylisoxazol-3-yl)amino)-N-(3-hydroxy-2,6-dimethylphenyl)thiazole-5-carboxamide], for which the IC50 at Human PKMYT1 (setting [4]) is under 0.05 µM; against WEE1 (WEE1 15 nM, banded values) it was 1 to 11 µM. In addition, the “PKMYT1 vs. WEE1 selectivity” value on WEE1 (banded) was “X (100-<1000 fold)”.

On to `Cc1conc1Nc1ncc(C(=O)Nc2c(C)ccc(O)c2C)s1` [BAA-440, N-(3-hydroxy-2,6-dimethylphenyl)-2-((4-methylisoxazol-3-yl)amino)thiazole-5-carboxamide], for which the IC50 was under 0.05 µM on Human PKMYT1 (setting [4]) and 1 to 11 µM against WEE1 (WEE1 15 nM, banded values). Further, the “PKMYT1 vs. WEE1 selectivity” value on WEE1 (banded) is listed as “X (100-<1000 fold)”.

On to `Cc1ccc(O)c(C)c1NC(=O)c1cnc(Nc2nc3ccccc3s2)s1` [BAA-442, 2-(benzo[d]thiazol-2-ylamino)-N-(3-hydroxy-2,6-dimethylphenyl)thiazole-5-carboxamide], for which the IC50 on Human PKMYT1 (setting [4]) was 0.05 to 1 µM; on WEE1 (WEE1 15 nM, banded values), over 11 µM. Also, at WEE1 (banded), the “PKMYT1 vs. WEE1 selectivity” value is given as “X (100-<1000 fold)”.

As to `Cc1ccc(O)c(C)c1NC(=O)c1cnc(Nc2cccc3c2CCC3)s1` [BAA-443, 2-((2,3-dihydro-1H-inden-4-yl)amino)-N-(3-hydroxy-2,6-dimethylphenyl)thiazole-5-carboxamide], the IC50 was 0.05 to 1 µM on Human PKMYT1 (setting [4]) and over 11 µM at WEE1 (WEE1 15 nM, banded values). For the same molecule, the “PKMYT1 vs. WEE1 selectivity” value at WEE1 (banded) is on record as “X (100-<1000 fold)”.

As to `Cc1ccc(O)c(C)c1NC(=O)c1cnc(Nc2nn(C)c3cccc(F)c23)s1` [BAA-444, 2-((4-fluoro-1-methyl-1H-indazol-3-yl)amino)-N-(3-hydroxy-2,6-dimethylphenyl)thiazole-5-carboxamide], the IC50 on Human PKMYT1 (setting [4]) is under 0.05 µM; against WEE1 (WEE1 15 nM, banded values), over 11 µM. For the same molecule, the “PKMYT1 vs. WEE1 selectivity” value at WEE1 (banded) is on record as “X (100-<1000 fold)”.
